The values below come from patent US20250031733A1, “Mint Flavor Compositions” (The Procter & Gamble Company, priority 2020, published 2025).

The nature of test [1]: Comparison of cooling attributes of (−)-menthol and racemic menthol in toothpaste (Crest Cavity formulation). It counts as in vivo. From the text: The following data helps support the use of racemic menthol to reduce costs of mint flavor compositions herein described. From internal unpublished research, Table B compares replacing (−)-menthol with a racemic menthol in a 1:1 in a toothpaste formulation. Such a direct replacement is not preferred given the reduced cooling profile and olfactory differences; however, a portion of L-menthol is preferably replaced by racemic-menthol to gain cost efficiency while minimizing impact to the overall mint flavor profiles.
This value represents the concentration of a coolant where 50% of its maximal cooling is observed.

Test [2] is described as follows: Expert sensory testing of racemic menthol vs (−)-menthol in toothpaste (CREST Cavity) with standard spearmint flavor. The format is in vivo. The protocol:
In separate, unpublished internal experiments, perceptual experiences of racemic menthol are quantified via expert sensory testing. The use of a standard spearmint flavor (minimizing extra menthol contribution) compared racemic menthol to (−)-menthol in a toothpaste formulation (CREST Cavity). There are several sensory observations taken from these experiments. […] These aromatic notes appear during brushing and disappear after 5-10 minutes post expectoration and are more pronounced as concentrations increase.

For the compound `CC1CCC(C(C)C)C(O)C1` (racemic) [Racemic Menthol], in test [1], the “Potency compared to L-Menthol” value is ~0.65-0.7x and the “Time Point at Maximum Cooling” value is ~1 min. The “Maximum Cooling (0-60 scale)” value in test [1] (60 = greatest amount of cooling, 0 = least) was determined as 35. In test [1] (concentration of coolant where 50% of maximal cooling is observed), the “EC 50” value is given as 1,250 to 1,500 parts per million. For the same compound, the “Maximum Longevity” value in test [1] (cooling) was “Up to 20 minutes”. In test [2], the “less potent than (−)-menthol for cooling” value is given as 25-30%.
